Values quoted from earlier work as cited in US20220362410A1, “PREFERRED ANTERIOR CAPSULOTOMY LOCATION PROVIDED BY TRYPAN BLUE OPTHALMIC SOLUTION” (Excel-Lens, Inc., priority 2018, published 2022).

Test system: cell toxicity
Conditions: concentrations above the range 0.2 to 0.45%

## Cc1cc(-c2ccc(/N=N/c3c(S(=O)(=O)O)cc4cc(S(=O)(=O)O)cc(N)c4c3O)c(C)c2)ccc1/N=N/c1c(S(=O)(=O)O)cc2cc(S(=O)(=O)O)cc(N)c2c1O [Trypan Blue]
  cell toxicity: cell toxicity was noted
